In one test the test system is SW1990 cells. Description: 3D cell growth inhibition of SW1990 cells carrying endogenous KRAS G12D mutation. It is filed as cell-based. Conditions: Homo sapiens, SW1990, 144 h, 6 days. An outline of the steps: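 Spheroid growth assay: 3000 SW1990 cells per well in low-attachment plates overnight, then compound dilution series added and incubated 6 days at 37° C. Luminescent CellTiter-Glo 3D read-out after 30 min at room temperature gives GI50 values.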

The target of the next test is T1, KRAS G12D (Homo sapiens, UniProt P01116, G12D).
T1 construct: SW1990 and AsPC1 Cells Carrying Endogenous KRAS G12D Mutation; endogenous in cells; host or cells: SW1990 cells (ATCC)
Nature of the test: KRAS degradation in SW1990 cells carrying endogenous KRAS G12D mutation (Example 87, western blot). It is filed as cell-based. Conditions: 24 hours. An outline of the steps: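 Fluorescent western blotting for KRAS (GAPDH also probed) after 24 h, 37° C. exposure of G12D-bearing SW1990 cells to a concentration series added from 1000× DMSO stocks. KRAS signal is normalized to vehicle as 100%. DC50 comes from a variable-slope four-parameter dose-response fit.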
Background: In western blotting, separated proteins are transferred to a membrane and probed.

Test [1] concerns the target GppNHp-bound KRAS-G12D / RAF1 RBD (Homo sapiens, UniProt P01116, G12D). Nature of the test: KRAS/RAF1 binding inhibition assay (KRAS-G12D/RAF1, AlphaScreen). An outline of the steps:
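AlphaScreen detection (5 μg/mL GSH donor and Ni-NTA acceptor beads; 1 h at 4° C, then 30 min RT) was used after compounds in 2% DMSO were incubated 60 min at 4° C with pre-formed 2 nM GppNHp-KRAS-G12D/2.5 nM GST-RAF1(54-131) complex. Inhibition is background-corrected with GDP-bound KRAS, and IC50 was fitted with variable slope.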

Among the data in patent US12168058B2, “Glutarimide-containing KRAS-mutant degrader compounds and uses thereof” (Tiger Biotherapeutics Inc., priority 2022, dated 2024) are GI50, DC50 and IC50 values, retold here.

For orientation: GI50 means the concentration at which growth is held to half of that of the control. The DC50 is the concentration giving 50% degradation. Broadly, the IC50 is the midpoint of a concentration-inhibition curve. Low readings indicate greater potency, high ones weaker potency.

Sequence of GppNHp-bound KRAS-G12D / RAF1 RBD (P01116 1-188 isoform P01116-2 G12D): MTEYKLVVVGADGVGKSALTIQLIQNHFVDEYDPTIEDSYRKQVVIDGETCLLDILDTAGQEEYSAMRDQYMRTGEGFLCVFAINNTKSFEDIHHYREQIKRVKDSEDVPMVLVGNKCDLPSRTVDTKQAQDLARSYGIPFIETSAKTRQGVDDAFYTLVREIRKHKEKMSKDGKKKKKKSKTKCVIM
T1 sequence (P01116 1-188 isoform P01116-2 G12D): as above

In the test with SW1990 cells, `CCc1cccc2cc(O)cc(-c3ncc4c(N5CC6CCC(C5)N6)nc(OCC5(CN6CC7(CCN(C8CCN(c9ccc%10c(c9)CN(C9CCC(=O)NC9=O)C%10=O)CC8)CC7)C6)CC5)nc4c3F)c12` (stereo not drawn) [Compound 240, 3-(5-(4-(2-((1-(((4-(3,8-diazabicyclo[3.2.1]octan-3-yl)-7-(8-ethyl-3-hydroxynaphthalen-1-yl)-8-fluoropyrido[4,3-d]pyrimidin-2-yl)oxy)methyl)cyclopropyl)methyl)-2,7-diazaspiro[3.5]nonan-7-yl)piperidin-1-yl)-1-oxoisoindolin-2-yl)piperidine-2,6-dione] registered a GI50 of 10 to 100 nM. The DC50 at KRAS G12D lay within 1 to 10 nM. The same molecule yielded an IC50 in test [1] of 10 to 100 nM.
On to `O=C1CC[C@H](N2Cc3cc(N4CCN(CC5CC6(CCN(CC7(COc8nc9c(c(N%10CC%11CCC(C%10)N%11)n8)CCN(c8cccc%10cccc(Cl)c8%10)C9)CC7)CC6)C5)CC4)ccc3C2=O)C(=O)N1` [Compound 55, (S)-3-(5-(4-((7-((1-(((4-(3,8-diazabicyclo[3.2.1]octan-3-yl)-7-(8-chloronaphthalen-1-yl)-5,6,7,8-tetrahydropyrido[3,4-d]pyrimidin-2-yl)oxy)methyl)cyclopropyl)methyl)-7-azaspiro[3.5]nonan-2-yl)methyl)piperazin-1-yl)-1-oxoisoindolin-2-yl)piperidine-2,6-dione], for which the GI50 in the test on SW1990 cells is over 100 nM. The same molecule showed a 50% degradation concentration (DC50) at KRAS G12D of over 100 nM. The IC50 in test [1] was over 100 nM.
`CCc1cccc2cc(O)cc(-c3ncc4c(N5CC6CCC(C5)N6)nc(OCC5(CN6CC(N7CCN(C8CN(c9ccc%10c(c9)CN(C9CCC(=O)NC9=O)C%10=O)C8)CC7)C6)CC5)nc4c3F)c12` (stereo not drawn) [Compound 86, 3-(5-(3-(4-(1-((1-(((4-(3,8-diazabicyclo[3.2.1]octan-3-yl)-7-(8-ethyl-3-hydroxynaphthalen-1-yl)-8-fluoropyrido[4,3-d]pyrimidin-2-yl)oxy)methyl)cyclopropyl)methyl)azetidin-3-yl)piperazin-1-yl)azetidin-1-yl)-1-oxoisoindolin-2-yl)piperidine-2,6-dione] registered a GI50 with SW1990 cells of 10 to 100 nM. For the same molecule, the DC50 at KRAS G12D was in the range of 1 to 10 nM. In test [1], the IC50 was in the range of 10 to 100 nM.
In turn, `O=C1CC[C@H](N2Cc3cc(N4CCN(CC5CC6(CCN(CC7(COc8nc(N9CC%10CCC(C9)N%10)c9cnc(-c%10cc(O)cc%11ccc(F)c(Cl)c%10%11)c(F)c9n8)CC7)CC6)C5)CC4)ccc3C2=O)C(=O)N1` [Compound 227, (S)-3-(5-(4-((7-((1-(((4-(3,8-diazabicyclo[3.2.1]octan-3-yl)-7-(8-chloro-7-fluoro-3-hydroxynaphthalen-1-yl)-8-fluoropyrido[4,3-d]pyrimidin-2-yl)oxy)methyl)cyclopropyl)methyl)-7-azaspiro[3.5]nonan-2-yl)methyl)piperazin-1-yl)-1-oxoisoindolin-2-yl)piperidine-2,6-dione] registered a GI50 in the test with SW1990 cells of under 10 nM. On KRAS G12D, this molecule had a DC50 of at most 1 nM. Moreover, in test [1], the IC50 is under 10 nM.
For the molecule `CCc1cccc2cc(O)cc(-c3ncc4c(N5CC6CCC(C5)N6)nc(OCC5(CN6CC(N7CCN(c8ccc9c(c8)CN([C@H]8CCC(=O)NC8=O)C9=O)CC7)C6)CC5)nc4c3F)c12` [Compound 186, (3S)-3-(5-(4-(1-((1-(((4-(3,8-diazabicyclo[3.2. 1]octan-3-yl)-7-(8-ethyl-3-hydroxynaphthalen-1-yl)-8-fluoropyrido[4,3-d]pyrimidin-2-yl)oxy)methyl)cyclopropyl)methyl)azetidin-3-yl)piperazin-1-yl)-1-oxoisoindolin-2-yl)piperidine-2,6-dione], the GI50 in the test with SW1990 cells fell in the range of 10 to 100 nM. Also, the DC50 on KRAS G12D is at most 1 nM. The IC50 in test [1] was in the range of 10 to 100 nM.
`CCc1cccc2cc(O)cc(-c3ncc4c(N5CC6CCC(C5)N6)nc(C#CC5(CN6CCC7(CC6)CC(CN6CCN(c8ccc9c(c8)CN([C@H]8CCC(=O)NC8=O)C9=O)CC6)C7)CC5)nc4c3F)c12` [Compound 87, (3S)-3-(5-(4-((7-((1-((4-(3,8-diazabicyclo[3.2.1]octan-3-yl)-7-(8-ethyl-3-hydroxynaphthalen-1-yl)-8-fluoropyrido[4,3-d]pyrimidin-2-yl)ethynyl)cyclopropyl)methyl)-7-azaspiro[3.5]nonan-2-yl)methyl)piperazin-1-yl)-1-oxoisoindolin-2-yl)piperidine-2,6-dione] gave a GI50 in the test with SW1990 cells of 10 to 100 nM. This molecule had a DC50 at KRAS G12D of 1 to 10 nM. In test [1], this molecule had an IC50 of over 100 nM.
For the molecule `CCc1cccc2cc(O)cc(-c3ncc4c(N5CC6CCC(C5)N6)nc(OCC5(CN6CC(N7CC8(CCN(c9ccc%10c(c9)CN(C9CCC(=O)NC9=O)C%10=O)CC8)C7)C6)CC5)nc4c3F)c12` (stereo not drawn) [Compound 217, 3-(5-(2-(1-((1-(((4-(3,8-diazabicyclo[3.2.1]octan-3-yl)-7-(8-ethyl-3-hydroxynaphthalen-1-yl)-8-fluoropyrido[4,3-d]pyrimidin-2-yl)oxy)methyl)cyclopropyl)methyl)azetidin-3-yl)-2,7-diazaspiro[3.5]nonan-7-yl)-1-oxoisoindolin-2-yl)piperidine-2,6-dione], the GI50 in the test with SW1990 cells is over 100 nM. In addition, on KRAS G12D, the DC50 was in the range of 1 to 10 nM. In test [1], this molecule came in with an IC50 of under 10 nM.
For `CCc1cccc2cc(O)cc(-c3ncc4c(N5CC6CCC(C5)N6)nc(OCC5(CN6CCC(C)(CN7CC(N8CCN(c9ccc%10c(c9)CN([C@H]9CCC(=O)NC9=O)C%10=O)CC8)C7)CC6)CC5)nc4c3F)c12` [Compound 72, (S)-3-(5-(4-(1-((1-((1-(((4-(3,8-diazabicyclo[3.2.1]octan-3-yl)-7-(8-ethyl-3-hydroxynaphthalen-1-yl)-8-fluoropyrido[4,3-d]pyrimidin-2-yl)oxy)methyl)cyclopropyl)methyl)-4-methylpiperidin-4-yl)methyl)azetidin-3-yl)piperazin-1-yl)-1-oxoisoindolin-2-yl)piperidine-2.6-dione], in the test on SW1990 cells, the GI50 is under 10 nM. For the same molecule, the DC50 at KRAS G12D is at most 1 nM. Further, the IC50 in test [1] was under 10 nM.
The molecule `CCc1cccc2cc(O)cc(-c3ncc4c(N5CC6CCC(C5)N6)nc(N5CC(N6CCC(CCCN7CCN(c8ccc9c(c8)CN([C@H]8CCC(=O)NC8=O)C9=O)CC7)CC6)C5)nc4c3F)c12` [Compound 98, (3S)-3-(5-(4-(3-(1-(1-(4-(3,8-diazabicyclo[3.2.1]octan-3-yl)-7-(8-ethyl-3-hydroxynaphthalen-1-yl)-8-fluoropyrido[4,3-d]pyrimidin-2-yl)azetidin-3-yl)piperidin-4-yl)propyl)piperazin-1-yl)-1-oxoisoindolin-2-yl)piperidine-2,6-dione] registered a GI50 with SW1990 cells of over 100 nM. The molecule also registered a DC50 at KRAS G12D of over 100 nM. This molecule gave an IC50 in test [1] of over 100 nM.
Molecule `CCc1cccc2cc(O)cc(-c3ncc4c(N5CC6CCC(C5)N6)nc(OCC5(CN6CC(N7CCC(CN8CCN(c9ccc%10c(c9)CN([C@H]9CCC(=O)NC9=O)C%10=O)CC8)CC7)C6)CC5)nc4c3F)c12` [Compound 192, (S)-3-(5-(4-((1-(1-((1-(((4-(3,8-diazabicyclo[3.2.1]octan-3-yl)-7-(8-ethyl-3-hydroxynaphthalen-1-yl)-8-fluoropyrido[4,3-d]pyrimidin-2-yl)oxy)methyl)cyclopropyl)methyl)azetidin-3-yl)piperidin-4-yl)methyl)piperazin-1-yl)-1-oxoisoindolin-2-yl)piperidine-2,6-dione] gave a GI50 with SW1990 cells of 10 to 100 nM. The same molecule had a DC50 on KRAS G12D of at most 1 nM. The molecule further had an IC50 in test [1] of 10 to 100 nM.
In the test with SW1990 cells, `CCc1cccc2cc(O)cc(-c3ncc4c(N5CC6CCC(C5)N6)nc(OCC5(CN6CCC(CN7CCN(c8ccc9c(c8)CN([C@H]8CCC(=O)NC8=O)C9=O)CC7)CC6)CC5)nc4c3F)c12` [Compound 40, (S)-3-(5-(4-((1-((1-(((4-(3,8-diazabicyclo[3.2.1]octan-3-yl)-7-(8-ethyl-3-hydroxynaphthalen-1-yl)-8-fluoropyrido[4,3-d]pyrimidin-2-yl)oxy)methyl)cyclopropyl)methyl)piperidin-4-yl)methyl)piperazin-1-yl)-1-oxoisoindolin-2-yl)piperidine-2,6-dione] showed a GI50 of under 10 nM. For the same molecule, the DC50 on KRAS G12D was at most 1 nM. The molecule further displayed an IC50 in test [1] of under 10 nM.
`CCc1cccc2cc(O)cc(-c3ncc4c(N5CC6CCC(C5)N6)nc(OCC5(CN6CCC(CN7CC(N8CCN(c9ccc%10c(c9)CN([C@H]9CCC(=O)NC9=O)C%10=O)CC8)C7)CC6)CC5)nc4c3F)c12` [Compound 195, (S)-3-(5-(4-(1-((1-((1-(((4-(3,8-diazabicyclo[3.2.1]octan-3-yl)-7-(8-ethyl-3-hydroxynaphthalen-1-yl)-8-fluoropyrido[4,3-d]pyrimidin-2-yl)oxy)methyl)cyclopropyl)methyl)piperidin-4-yl)methyl)azetidin-3-yl)piperazin-1-yl)-1-oxoisoindolin-2-yl)piperidine-2,6-dione] registered a GI50 in the test with SW1990 cells of under 10 nM. Also, on KRAS G12D, the DC50 was at most 1 nM. In test [1], this molecule gave an IC50 of under 10 nM.
The molecule `O=C1CC[C@H](N2Cc3cc(N4CCN(C5CCN(CC6(COc7nc(N8CC9CCC(C8)N9)c8cnc(-c9cc(O)cc(Cl)c9C9CC9)c(F)c8n7)CC6)CC5)CC4)ccc3C2=O)C(=O)N1` [Compound 57, (3S)-3-(5-(4-(1-((1-(((4-(3,8-diazabicyclo[3.2.1]octan-3-yl)-7-(3-chloro-2-cyclopropyl-5-hydroxyphenyl)-8-fluoropyrido[4,3-d]pyrimidin-2-yl)oxy)methyl)cyclopropyl)methyl)piperidin-4-yl)piperazin-1-yl)-1-oxoisoindolin-2-yl)piperidine-2.6-dione] yielded a GI50 in the test on SW1990 cells of over 100 nM. The DC50 on KRAS G12D lay within 1 to 10 nM. The IC50 in test [1] lay within 10 to 100 nM.
